The values that follow come from US8846699B2, “Quinazoline derivatives as a multiplex inhibitor and method for the preparation thereof” (Hanmi Pharm. Co., Ltd., priority 2005, dated 2014).

The target of one assay is VEGFR2 (KDR) (Homo sapiens (Human), UniProt P35968). Kind of assay: VEGFR2 (KDR) enzyme assay, fluorescence polarization. The format is biochemical. As to conditions: 5 μM ATP, poly(Glu, Tyr) substrate. The method, boiled down: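 Buffer: 20 mM HEPES pH 7.4 with 5 mM MgCl2, 2 mM MnCl2 and 50 μM Na3VO4. Compound (0.0001–10 μM) was premixed 10 min with VEGFR2 (200 ng/10 μl), then poly(Glu,Tyr) substrate (10 ng/ml) and 5 μM ATP were added for 1 h at room temperature. EDTA-quenched samples were read by FP after 30 min with antibody and tracer.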

In assay [1] the test system is skin cancer cell line, A431. Briefly: Inhibitory effect on growth of cancer cell line A431, SRB. The assay is classed as cell-based. The settings on record: overexpressed EGFR1 (HER-1). The method, boiled down:
(§1)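 Growth inhibition was measured by sulforhodamine-B staining (absorbance 570 nm) of TCA-fixed cells after 72 h compound exposure at 37 °C, 5% CO2. Test concentrations ran from 10 μM in 10-fold steps to 10^−4, with DMSO below 1%, in 10% FBS DMEM.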

Assay [2] has as its system breast cancer cell line, SK-Br3. Kind of assay: Inhibitory effect on growth of cancer cell line SK-Br3, SRB. The format is cell-based. As to conditions: overexpressed EGFR2 (HER-2). The method, boiled down:
as §1

Assay [3] concerns colon and rectal cancer cell line, SW-620. Briefly: Inhibitory effect on growth of cancer cell line SW-620, SRB. The format is cell-based. As to conditions: not having overexpressed EGFR and EGFR2. The method, boiled down: as §1
The target of a further assay is EGFR1 (HER-1) (Homo sapiens (Human), UniProt P00533). Briefly: EGFR1 (HER-1) enzyme assay, fluorescence polarization. The assay is classed as biochemical. The settings on record: 100 μM ATP, poly(Glu, Tyr) substrate.
The test system of assay [4] is Human Umbilical Vein Endothelial Cell (HUVEC). Kind of assay: Inhibitory effect on growth of human umbilical vein endothelial cell (HUVEC), MTS. As to conditions: 10 ng/ml VEGF, absorbance 490 nm. The assay is classed as cell-based.

Sequence of VEGFR2 (KDR) (P35968 20-1356): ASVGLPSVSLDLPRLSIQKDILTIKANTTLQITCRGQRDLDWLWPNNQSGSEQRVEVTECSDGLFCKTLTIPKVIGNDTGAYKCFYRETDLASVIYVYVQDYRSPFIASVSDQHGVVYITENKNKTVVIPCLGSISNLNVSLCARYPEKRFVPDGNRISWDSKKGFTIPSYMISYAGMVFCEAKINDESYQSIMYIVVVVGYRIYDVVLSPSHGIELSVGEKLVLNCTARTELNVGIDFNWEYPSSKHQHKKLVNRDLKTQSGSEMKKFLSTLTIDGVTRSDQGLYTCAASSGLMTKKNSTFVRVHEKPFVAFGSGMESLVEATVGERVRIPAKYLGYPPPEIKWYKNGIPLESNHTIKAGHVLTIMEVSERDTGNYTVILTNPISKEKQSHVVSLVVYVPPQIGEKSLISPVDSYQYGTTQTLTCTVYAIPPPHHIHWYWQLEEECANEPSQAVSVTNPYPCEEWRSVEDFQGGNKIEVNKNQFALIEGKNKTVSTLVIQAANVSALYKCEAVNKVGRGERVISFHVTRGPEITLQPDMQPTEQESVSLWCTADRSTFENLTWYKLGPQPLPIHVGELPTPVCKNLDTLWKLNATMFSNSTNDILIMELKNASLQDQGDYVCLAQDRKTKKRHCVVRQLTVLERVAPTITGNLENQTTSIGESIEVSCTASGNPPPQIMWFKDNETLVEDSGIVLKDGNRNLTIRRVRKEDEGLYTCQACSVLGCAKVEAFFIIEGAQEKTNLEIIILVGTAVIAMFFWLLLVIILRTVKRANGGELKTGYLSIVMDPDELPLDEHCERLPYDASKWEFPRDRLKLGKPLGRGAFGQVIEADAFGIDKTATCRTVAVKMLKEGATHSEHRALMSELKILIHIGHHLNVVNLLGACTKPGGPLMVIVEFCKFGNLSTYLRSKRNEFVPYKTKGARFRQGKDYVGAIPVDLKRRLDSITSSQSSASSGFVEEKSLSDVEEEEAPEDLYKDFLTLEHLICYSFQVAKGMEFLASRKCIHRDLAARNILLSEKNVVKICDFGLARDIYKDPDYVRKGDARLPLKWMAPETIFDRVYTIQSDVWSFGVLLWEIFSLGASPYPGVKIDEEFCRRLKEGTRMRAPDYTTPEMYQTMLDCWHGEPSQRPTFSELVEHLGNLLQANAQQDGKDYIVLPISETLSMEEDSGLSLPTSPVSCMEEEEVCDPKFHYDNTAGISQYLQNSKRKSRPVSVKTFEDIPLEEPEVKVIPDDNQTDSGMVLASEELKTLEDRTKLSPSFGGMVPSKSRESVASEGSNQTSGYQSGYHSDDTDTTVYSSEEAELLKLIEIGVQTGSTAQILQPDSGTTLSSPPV

For `C=CC(=O)Nc1cc2c(Nc3ccc(Br)cc3F)ncnc2cc1OCCNC(=S)NC` [Example 35, N-{4-(4-bromo-2-fluoro-phenylamino)-7-[2-(3-methyl-thioureido)-ethoxy]-quinazolin-6-yl}-acrylamide], the IC50 turned out to be 457 nM against VEGFR2 (KDR); 90 nM in assay [1] (Homo sapiens, A-431, 72 h); 225 nM in assay [2] (Homo sapiens, SK-BR-3, 72 h); 9560 nM in assay [3] (Homo sapiens, 72 h); 98 nM on EGFR1 (HER-1); 951 nM in assay [4] (Homo sapiens, 96 h).
As for `C=CC(=O)Nc1cc2c(Nc3ccc(F)cc3F)ncnc2cc1OCCNC(=O)CN(C)C` [Example 68, N-[4-(2,4-difluorophenylamino)-7-{2-[2-(dimethylamino)-acetylamino]-ethoxy}-quinazolin-6-yl]-acrylamide], the IC50 at VEGFR2 (KDR) was found to be 687 nM; in assay [1] (Homo sapiens, A-431, 72 h) it was 265 nM; in assay [2] (Homo sapiens, SK-BR-3, 72 h), 564 nM; in assay [3] (Homo sapiens, 72 h), 725 nM; on EGFR1 (HER-1) it was 156 nM; in assay [4] (Homo sapiens, 96 h), 682 nM.
With “N-{2-[6-acryloylamino-4-(4-bromo-2-fluoro-phenylamino)-quinazolin-7-yloxy]-ethyl}-3-dimethylamino-butylamide [Example 75]”, the IC50 is 658 nM at VEGFR2 (KDR); 452 nM in assay [1] (72 hours); 658 nM in assay [2] (72 hours); 2660 nM in assay [3] (72 hours); 325 nM against EGFR1 (HER-1); 690 nM in assay [4] (96 hours).
For the compound `C=CC(=O)Nc1cc2c(Nc3ccc(Br)cc3F)ncnc2cc1OCC1CCN(C(N)=O)CC1` [Example 4, 4-[6-acryloylamino-4-(4-bromo-2-fluoro-phenylamino)-quinazolin-7-yloxymethyl]-piperidin-1-carboxylic acid amide], the 50% inhibitory concentration (IC50) amounted to 136 nM against VEGFR2 (KDR); 25 nM in assay [1] (Homo sapiens, A-431, 72 h); 147 nM in assay [2] (Homo sapiens, SK-BR-3, 72 h); 5680 nM in assay [3] (Homo sapiens, 72 h); 15 nM at EGFR1 (HER-1); 87 nM in assay [4] (Homo sapiens, 96 h).
For the compound `C=CC(=O)Nc1cc2c(Nc3ccc(Br)cc3F)ncnc2cc1OCCNC` [Example 30, N-[4-(4-bromo-2-fluoro-phenylamino)-7-(2-methylamino-ethoxy)-quinazolin-6-yl]-acrylamide], the IC50 against VEGFR2 (KDR) turned out to be 513 nM; in assay [1] (Homo sapiens, A-431, 72 h), 127 nM; in assay [2] (Homo sapiens, SK-BR-3, 72 h) it was 581 nM; in assay [3] (Homo sapiens, 72 h), 4530 nM; at EGFR1 (HER-1) it was 96 nM; in assay [4] (Homo sapiens, 96 h) it was 964 nM.
With `C=CC(=O)Nc1cc2c(Nc3ccc(Br)cc3F)ncnc2cc1OC[C@H](C)NC(C)=O` [Example 83, (S)—N-[7-(2-acetylamino-propoxy)-4-(4-bromo-2-fluoro-phenylamino)-quinazolin-6-yl]-acrylamide], the IC50 was found to be 71 nM on VEGFR2 (KDR); 113 nM in assay [1] (Homo sapiens, A-431, 72 h); 933 nM in assay [2] (Homo sapiens, SK-BR-3, 72 h); 2870 nM in assay [3] (Homo sapiens, 72 h); 98 nM at EGFR1 (HER-1); 106 nM in assay [4] (Homo sapiens, 96 h).
In the case of `C=CC(=O)Nc1cc2c(Nc3ccc(Br)cc3F)ncnc2cc1OCCNC(=O)COC` [Example 44, N-{4-(4-bromo-2-fluoro-phenylamino)-7-[2-(2-methoxy-acetylamino)-ethoxy]-quinazolin-6-yl}-acrylamide], the IC50 was 161 nM against VEGFR2 (KDR); 16 nM in assay [1] (Homo sapiens, A-431, 72 h); 98 nM in assay [2] (Homo sapiens, SK-BR-3, 72 h); 2320 nM in assay [3] (Homo sapiens, 72 h); 14 nM at EGFR1 (HER-1); 265 nM in assay [4] (Homo sapiens, 96 h).
For the compound `C=CC(=O)Nc1cc2c(Nc3ccc(Br)cc3F)ncnc2cc1OCCN` [Example 29, N-[7-(2-amino-ethoxy)-4-(4-bromo-2-fluoro-phenylamino)-quinazolin-6-yl]-acrylamide], the IC50 turned out to be 545 nM against VEGFR2 (KDR); 46 nM in assay [1] (Homo sapiens, A-431, 72 h); 145 nM in assay [2] (Homo sapiens, SK-BR-3, 72 h); 10000 nM in assay [3] (Homo sapiens, 72 h); 4 nM against EGFR1 (HER-1); 951 nM in assay [4] (Homo sapiens, 96 h).
As for `C=CC(=O)Nc1cc2c(Nc3ccc(Br)cc3F)ncnc2cc1OCC(C)NC(=O)NCCC` (stereo not drawn) [Example 85, N-{4-(4-bromo-2-fluoro-phenylamino)-7-[2-(3-propyl-ureido)-propoxy]-quinazolin-6-yl}-acrylamide], the IC50 was 784 nM on VEGFR2 (KDR); 38 nM in assay [1] (Homo sapiens, A-431, 72 h); 178 nM in assay [2] (Homo sapiens, SK-BR-3, 72 h); 2760 nM in assay [3] (Homo sapiens, 72 h); 29 nM on EGFR1 (HER-1); 964 nM in assay [4] (Homo sapiens, 96 h).
For the compound `C=CC(=O)Nc1cc2c(Nc3ccc(F)c(F)c3F)ncnc2cc1OCC1CCN(C(C)=O)CC1` [Example 7, N-[7-(1-acetyl-piperidin-4-ylmethoxy)-4-(2,3,4-trifluoro-phenylamino)-quinazolin-6-yl]-acrylamide], the IC50 is 250 nM against VEGFR2 (KDR); 38 nM in assay [1] (Homo sapiens, A-431, 72 h); 67 nM in assay [2] (Homo sapiens, SK-BR-3, 72 h); 9570 nM in assay [3] (Homo sapiens, 72 h); 26 nM against EGFR1 (HER-1); 99 nM in assay [4] (Homo sapiens, 96 h).
As to `C=CC(=O)Nc1cc2c(Nc3ccc(Br)c(Cl)c3F)ncnc2cc1OCCNC(=O)CCN1CCCCC1` [Example 147, N-{4-(4-bromo-3-chloro-2-fluoro-phenylamino)-7-[2-(3-piperidin-1-yl-propionylamino)-ethoxy]-quinazolin-6-yl}-acrylamide], the IC50 was 79 nM at VEGFR2 (KDR); 40 nM in assay [1] (Homo sapiens, A-431, 72 h); 125 nM in assay [2] (Homo sapiens, SK-BR-3, 72 h); 9530 nM in assay [3] (Homo sapiens, 72 h); 12 nM on EGFR1 (HER-1); 167 nM in assay [4] (Homo sapiens, 96 h).
For the compound `C=CC(=O)Nc1cc2c(Nc3cc(Cl)c(Cl)cc3F)ncnc2cc1OCCNC(=O)CS(C)(=O)=O` [Example 139, N-{4-(4,5-dichloro-2-fluoro-phenylamino)-7-[2-(2-methanesulfonyl-acetylamino)-ethoxy]-quinazolin-6-yl}-acrylamide], the IC50 against VEGFR2 (KDR) came out at 657 nM; in assay [1] (Homo sapiens, A-431, 72 h) it was 48 nM; in assay [2] (Homo sapiens, SK-BR-3, 72 h) it was 109 nM; in assay [3] (Homo sapiens, 72 h) it was 2830 nM; against EGFR1 (HER-1) it was 40 nM; in assay [4] (Homo sapiens, 96 h) it was 682 nM.
For `C=CC(=O)Nc1cc2c(Nc3ccc(Br)cc3F)ncnc2cc1OCCNC(=O)C(F)(F)F` [Example 28, N-[4-(4-bromo-2-fluoro-phenylamino)-7-[2-(2,2,2-trifluoro-acetylamino)-ethoxy]-quinazolin-6-yl]-acrylamide], the IC50 against VEGFR2 (KDR) was determined as 500 nM; in assay [1] (Homo sapiens, A-431, 72 h), 76 nM; in assay [2] (Homo sapiens, SK-BR-3, 72 h), 233 nM; in assay [3] (Homo sapiens, 72 h) it was 9680 nM; against EGFR1 (HER-1), 23 nM; in assay [4] (Homo sapiens, 96 h), 977 nM.
For the compound `C=CC(=O)Nc1cc2c(Nc3ccc(Br)cc3F)ncnc2cc1OCCNC(=O)NC(C)C` [Example 37, N-{4-(4-bromo-2-fluoro-phenylamino)-7-[2-(3-isopropyl-ureido)-ethoxy]-quinazolin-6-yl}-acrylamide], the IC50 on VEGFR2 (KDR) came out at 895 nM; in assay [1] (Homo sapiens, A-431, 72 h), 31 nM; in assay [2] (Homo sapiens, SK-BR-3, 72 h), 65 nM; in assay [3] (Homo sapiens, 72 h), 4540 nM; against EGFR1 (HER-1) it was 36 nM; in assay [4] (Homo sapiens, 96 h), 682 nM.
Consider `C=CC(=O)Nc1cc2c(Nc3ccc(Br)cc3F)ncnc2cc1OCCNC(=O)CN(CC)CC` [Example 167, N-{4-(4-bromo-2-fluoro-phenylamino)-7-[2-(2-diethylamino-acetylamino)-ethoxy]-quinazolin-6-yl}-acrylamide], for which the IC50 worked out at 462 nM on VEGFR2 (KDR); 42 nM in assay [1] (Homo sapiens, A-431, 72 h); 103 nM in assay [2] (Homo sapiens, SK-BR-3, 72 h); 10000 nM in assay [3] (Homo sapiens, 72 h); 26 nM on EGFR1 (HER-1); 108 nM in assay [4] (Homo sapiens, 96 h).
Regarding `C=CC(=O)Nc1cc2c(Nc3ccc(Br)cc3F)ncnc2cc1OCC(CC)NC(C)=O` (stereo not drawn) [Example 86, N-[7-(2-acetylamino-butoxy)-4-(4-bromo-2-fluoro-phenylamino)-quinazolin-6-yl]-acrylamide], the IC50 on VEGFR2 (KDR) turned out to be 98 nM; in assay [1] (Homo sapiens, A-431, 72 h), 71 nM; in assay [2] (Homo sapiens, SK-BR-3, 72 h) it was 208 nM; in assay [3] (Homo sapiens, 72 h), 722 nM; on EGFR1 (HER-1) it was 69 nM; in assay [4] (Homo sapiens, 96 h), 118 nM.
Turning to `C=CC(=O)Nc1cc2c(Nc3ccc(Br)cc3F)ncnc2cc1OCC(C)NC(=O)CC` (stereo not drawn) [Example 84, N-[4-(4-bromo-2-fluoro-phenylamino)-7-(2-propionylamino-propoxy)-quinazolin-6-yl]-acrylamide], the IC50 was found to be 94 nM on VEGFR2 (KDR); 34 nM in assay [1] (Homo sapiens, A-431, 72 h); 71 nM in assay [2] (Homo sapiens, SK-BR-3, 72 h); 10000 nM in assay [3] (Homo sapiens, 72 h); 26 nM on EGFR1 (HER-1); 113 nM in assay [4] (Homo sapiens, 96 h).
As for `C=CC(=O)Nc1cc2c(Nc3ccc(Br)cc3F)ncnc2cc1OCCNC(=O)C=NOC` [Example 73, N-{4-(4-bromo-2-fluoro-phenylamino)-7-[2-(2-methoxyimino-acetylamino)-ethoxy]-quinazolin-6-yl}-acrylamide], the half-inhibitory concentration (IC50) against VEGFR2 (KDR) came out at 668 nM; in assay [1] (Homo sapiens, A-431, 72 h), 365 nM; in assay [2] (Homo sapiens, SK-BR-3, 72 h), 589 nM; in assay [3] (Homo sapiens, 72 h), 10000 nM; against EGFR1 (HER-1), 256 nM; in assay [4] (Homo sapiens, 96 h), 634 nM.
